Results as given in ChEMBL document CHEMBL4304785, “Recent advances of analogues of curcumin for treatment of cancer” (Eur J Med Chem, 2019).
Values belong to the compound of their own block, whether it stands above or below them.

Legend:
MDA-MB-231 = assay: Increase in MMP3 level in human MDA-MB-231 cells after 24 hrs by ELISA; type: functional, cell-based; settings: MDA-MB-231, 24 h
HT-1080 = assay: Decrease in UPA expression in human HT1080 cells; type: functional, cell-based
SK-OV-3 = assay: Cell cycle arrest in human SKOV3 cells assessed as accumulation at G1 phase at 15 umol/L after 24 hrs by propidium iodide staining-based assay (reference value: 58.1%); type: functional
Tubulin = assay: Inhibition of tubulin polymerization (unknown origin); type: protein-complex assay, Homo sapiens
K562 = assay: Induction of apoptosis in human K562; type: functional, cell-based
[1] = Cytotoxicity against human WRO cells at 5 umol/L after 72 hrs by MTS assay relative to control; type: functional
[2] = Cytotoxicity against human WRO cells after 72 hrs in presence of curcumin by MTS assay relative to control; type: functional
MCF7R [3] = assay: Cytotoxicity against human MCF7/R cells at 5 umol/L after 72 hrs by MTS assay relative to control; type: functional
[4] = Cytotoxicity against human WRO cells at 10 uM after 72 hrs by MTS assay relative to control; type: functional
MCF7R [5] = assay: Cytotoxicity against human MCF7/R cells after 72 hrs in presence of curcumin by MTS assay relative to control; type: functional
MCF7R [6] = assay: Cytotoxicity against human MCF7/R cells at 10 uM after 72 hrs by MTS assay relative to control; type: functional
HT-29 [7] = assay: Cytotoxicity against human HT-29 cells after 4 hrs by MTT assay; type: functional, cell-based; settings: HT-29, 4 h
Colon 26 = assay: Cytotoxicity against mouse Colon 26 cells after 4 hrs by MTT assay; type: functional, cell-based; settings: Colon 26, 4 h
WiDr = assay: Cytotoxicity against human WiDr cells after 4 hrs by MTT assay; type: functional, cell-based
[8] = Cytotoxicity against human SW116 cells after 4 hrs by MTT assay; type: functional, cell-based; settings: SW116, 4 h
KM12 = assay: Cytotoxicity against human KM12 cells after 4 hrs by MTT assay; type: functional, cell-based; settings: KM12, 4 h
SW480 = assay: Cytotoxicity against human SW480 cells after 4 hrs by MTT assay; type: functional, cell-based; settings: SW480, 4 h
HepG2 = assay: Cytotoxicity against human HepG2 cells by MTT/SRB assay; type: functional, cell-based
HT-29 [9] = assay: Cytotoxicity against human HT-29 cells by MTT/SRB assay; type: functional, cell-based
Caco-2 = assay: Cytotoxicity against human Caco2 cells by MTT/SRB assay; type: functional, cell-based
CHO-K1 = assay: Cytotoxicity against CHOK1 cells by MTT/SRB assay; type: functional, cell-based; settings: Cricetulus griseus
[10] = molecular target: 72 kDa type IV collagenase (Homo sapiens) (UniProt P08253); assay: Inhibition of MMP2 (unknown origin)
BT-474 = assay: Cytotoxicity against human BT474 cells; type: functional, cell-based
DLD-1 = assay: Cytotoxicity against human DLD1 cells; type: functional, cell-based
T47D = assay: Cytotoxicity against human T47D cells; type: functional, cell-based
MCF7 = assay: Cytotoxicity against human MCF7 cells; type: functional, cell-based
HaCaT = assay: Cytotoxicity against human HaCaT cells; type: functional, cell-based
EL4 = assay: Induction of apoptosis in mouse EL4 cells at 50 umol/L after 72 hrs relative to control; type: functional
CCD-841CoN = assay: Cytotoxicity against human CRL1790 cells; type: functional, cell-based
HeLa = assay: Cytotoxicity against human HeLa cells; type: functional, cell-based
Hep 3B2 = assay: Cytotoxicity against human Hep3B cells; type: functional, cell-based
HT-29 [11] = assay: Cytotoxicity against human HT-29 cells; type: functional, cell-based
[12] = Cytotoxicity against human HPL1D cells; type: functional, cell-based
[13] = Cytotoxicity against […] cells by MTT assay; type: functional, cell-based
TT = assay: Cytotoxicity against human TT cells by trypan blue dye-based assay; type: functional, cell-based
[14] = molecular target: Fibroblast growth factor receptor 1 (Homo sapiens) (UniProt P11362); assay: Inhibition of FGFR1 (unknown origin) relative to control; settings: concentration not given here
[15] = molecular target: Fibroblast growth factor receptor 2 (Homo sapiens) (UniProt P21802); assay: Inhibition of FGFR2 (unknown origin) relative to control; settings: concentration not given here
L02 = assay: Antiproliferative activity against human HL7702 cells by MTT assay; type: functional, cell-based
U-251 = assay: Antiproliferative activity against human U251 cells by MTT assay; type: functional, cell-based
SGC-7901 = assay: Antiproliferative activity against human SGC7901 cells by MTT assay; type: functional, cell-based
NCI-H460 = assay: Antiproliferative activity against human H460 cells by MTT assay; type: functional, cell-based

Chain of 72 kDa type IV collagenase (Homo sapiens) (P08253 110-660 limits assumed): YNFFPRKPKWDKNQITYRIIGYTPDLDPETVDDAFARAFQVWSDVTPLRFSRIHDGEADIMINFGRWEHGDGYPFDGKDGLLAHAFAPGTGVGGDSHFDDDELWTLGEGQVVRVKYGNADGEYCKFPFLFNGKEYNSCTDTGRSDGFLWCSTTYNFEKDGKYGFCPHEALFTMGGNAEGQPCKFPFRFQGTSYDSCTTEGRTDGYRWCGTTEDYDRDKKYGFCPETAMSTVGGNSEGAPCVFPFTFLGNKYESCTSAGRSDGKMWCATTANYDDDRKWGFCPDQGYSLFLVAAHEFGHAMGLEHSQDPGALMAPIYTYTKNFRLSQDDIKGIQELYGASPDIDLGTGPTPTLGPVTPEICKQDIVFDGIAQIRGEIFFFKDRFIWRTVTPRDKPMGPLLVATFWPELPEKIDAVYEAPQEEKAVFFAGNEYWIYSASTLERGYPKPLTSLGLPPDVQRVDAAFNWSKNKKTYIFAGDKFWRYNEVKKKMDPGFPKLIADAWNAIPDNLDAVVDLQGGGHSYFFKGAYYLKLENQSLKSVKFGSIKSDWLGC
Chain of Fibroblast growth factor receptor 1 (Homo sapiens) (P11362 22-822 limits assumed): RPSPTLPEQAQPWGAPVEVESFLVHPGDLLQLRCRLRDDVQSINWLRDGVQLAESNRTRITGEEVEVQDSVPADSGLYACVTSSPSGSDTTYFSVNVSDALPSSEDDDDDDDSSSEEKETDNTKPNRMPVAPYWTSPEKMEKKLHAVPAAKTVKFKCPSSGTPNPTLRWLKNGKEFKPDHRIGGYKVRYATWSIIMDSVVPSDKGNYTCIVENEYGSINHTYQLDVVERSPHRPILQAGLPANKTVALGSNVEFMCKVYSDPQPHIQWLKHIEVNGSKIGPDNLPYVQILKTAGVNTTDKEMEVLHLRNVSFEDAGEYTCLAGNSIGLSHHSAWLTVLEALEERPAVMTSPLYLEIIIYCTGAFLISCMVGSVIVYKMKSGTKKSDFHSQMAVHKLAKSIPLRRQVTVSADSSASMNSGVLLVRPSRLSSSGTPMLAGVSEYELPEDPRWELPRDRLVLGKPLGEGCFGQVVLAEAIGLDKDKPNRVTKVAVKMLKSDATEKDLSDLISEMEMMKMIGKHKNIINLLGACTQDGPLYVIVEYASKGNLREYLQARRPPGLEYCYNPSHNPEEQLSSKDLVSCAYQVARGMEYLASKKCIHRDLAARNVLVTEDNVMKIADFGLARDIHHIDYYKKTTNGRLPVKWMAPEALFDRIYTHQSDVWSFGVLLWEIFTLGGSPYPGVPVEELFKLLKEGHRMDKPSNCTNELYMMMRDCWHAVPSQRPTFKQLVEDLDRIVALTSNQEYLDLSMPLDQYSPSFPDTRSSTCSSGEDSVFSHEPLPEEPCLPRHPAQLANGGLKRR
Chain of Fibroblast growth factor receptor 2 (Homo sapiens) (P21802 22-821 limits assumed): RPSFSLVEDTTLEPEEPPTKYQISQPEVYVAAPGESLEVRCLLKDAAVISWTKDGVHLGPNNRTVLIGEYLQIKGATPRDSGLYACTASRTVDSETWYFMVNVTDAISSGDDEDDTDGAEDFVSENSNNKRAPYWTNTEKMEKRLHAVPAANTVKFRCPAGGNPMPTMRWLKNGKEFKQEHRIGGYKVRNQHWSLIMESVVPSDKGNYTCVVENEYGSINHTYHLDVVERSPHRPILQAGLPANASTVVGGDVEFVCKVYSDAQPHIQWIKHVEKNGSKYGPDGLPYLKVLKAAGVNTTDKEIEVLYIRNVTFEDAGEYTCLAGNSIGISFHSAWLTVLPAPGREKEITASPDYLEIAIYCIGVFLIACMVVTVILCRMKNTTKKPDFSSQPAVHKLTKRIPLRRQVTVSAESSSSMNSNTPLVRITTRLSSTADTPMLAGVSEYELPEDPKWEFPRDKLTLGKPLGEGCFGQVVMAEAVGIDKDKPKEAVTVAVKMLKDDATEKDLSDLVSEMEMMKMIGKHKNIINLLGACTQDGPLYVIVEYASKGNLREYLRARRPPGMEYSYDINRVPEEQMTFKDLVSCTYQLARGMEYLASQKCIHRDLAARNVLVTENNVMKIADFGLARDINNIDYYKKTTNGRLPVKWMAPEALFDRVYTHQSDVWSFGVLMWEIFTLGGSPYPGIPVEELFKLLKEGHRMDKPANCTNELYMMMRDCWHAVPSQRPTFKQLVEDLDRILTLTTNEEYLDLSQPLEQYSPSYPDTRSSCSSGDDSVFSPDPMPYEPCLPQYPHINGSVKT

SMILES: COc1cc(/C=C/c2cc(/C=C/c3ccc(O)c(OC)c3)[nH]n2)ccc1O [CURCUMIN PYRAZOLE]
inhibition at 5 µM [1]: 48.9% | inhibition (INH) [2]: 41% | inhibition at 5 µM (MCF7R [3]): 52.8% | inhibition at 10 µM [4]: 48.2%

SMILES: COc1cc(/C=C/c2cc(/C=C/c3ccc(O)c(OC)c3)on2)ccc1O
inhibition (INH) (MCF7R [5]): 57.6% | inhibition at 10 µM (MCF7R [6]): 57.8%

SMILES: COc1cc(/C=C/C(=O)C(Cc2ccc(O)c(OC)c2)C(=O)/C=C/c2ccc(O)c(OC)c2)ccc1O
IC50 (HT-29 [7]): 5.42 µM | IC50 (Colon 26; read-out: IC50): 8.91 µM | IC50 (WiDr): 7.32 µM | IC50 [8]: 7.08 µM | IC50 (KM12): 3.9 µM | IC50 (SW480): 4.78 µM

SMILES: O=C(/C=C(O)/C=C/c1c[nH]c2ccccc12)/C=C/c1c[nH]c2ccccc12
IC50 (HepG2): 3.3 to 12.1 µM | IC50 (HT-29 [9]): 3.3 to 12.1 µM | IC50 (Caco-2): 3.3 to 12.1 µM | IC50 (CHO-K1): 3.3 to 12.1 µM

SMILES: CCCCC[C@H](O)CC(=O)CCc1ccc(O)c(OC)c1
INH [10]: > 10 µmol/L

SMILES: COc1cc(/C=C/C(=O)CC(=O)/C=C/c2ccc(O)c(OC)c2)ccc1O [CURCUMIN]
IC50 (BT-474): 11 µM | IC50 (DLD-1): 146 µM | IC50 (HT-29 [7]): 20.7 µM | IC50 (Colon 26): 30.3 µM | IC50 (T47D): 11 µM | IC50 (MCF7): 19.9 µM | IC50 (WiDr): 26.8 µM | IC50 (HaCaT): 13 µM | Activity (EL4): 95% | IC50 (CCD-841CoN): 105 µM | IC50 [8]: 27.5 µM | IC50 (KM12): 16 µM | IC50 (HeLa): 8.2 µM | IC50 (Hep 3B2): 10 µM | IC50 (HT-29 [11]): 132 µM | IC50 [12]: 16 µM | IC50 (SW480): 17.9 µM | IC50 (HT-1080): 10 µM | IC50 [13]: 8.5 µM

SMILES: COc1cc(/C=C/C(=O)O)ccc1O [FERULATE]
IC50 (TT): 150 µM | inhibition [14]: 92% | inhibition [15]: 64%

More lines, main results first:

IC50 (MDA-MB-231): 11 µM | IC50 (HT-1080): 7 µM
SMILES: O=C(/C=C/c1ccc(O)cc1)CC(=O)/C=C/c1ccc(O)cc1 [BISDEMETHOXYCURCUMIN]
Activity (SK-OV-3): 79.7%

IC50 (Tubulin): 620 µM | IC50 (K562): 4.3 µM
SMILES: O=C(/C=C/c1ccccc1)c1ccccc1 [CHALCONE]

IC50 (U-251): 4.5 µM | IC50 (SGC-7901): 6.5 µM | IC50 (NCI-H460): 6 µM
SMILES: O=C1/C(=C/c2ccccc2F)CNC/C1=C\c1ccccc1F
IC50 (L02): 5.8 µM
